Experimental data: patent US7026339B2, “Inhibitors of HCV NS5B polymerase” (priority 2003, dated 2006)

Tested on: HuH-7 replicon cells 5–15 and 9–13 (HCV replication)
Assay: Inhibition of viral replication in HuH-7 replicon cells (HCV RNA / GAPDH RNA by multiplex RT-PCR)
Format: cell-based
Settings: Hepatitis C virus, 72 h; inhibiting 50% of replication; HuH-7 replicon cells, 3 days; read-out: IC50
Method in brief: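 Replicon cells seeded at 7×10^3 cells/well, grown 24 h, then exposed 3 days at 37 °C to compound at final 100 μM–1 μM (1% DMSO). Multiplex TaqMan RT-PCR on total RNA quantified HCV 5′-UTR and GAPDH RNA against a standard curve; HCV/GAPDH ratio reported as percent of untreated control.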

## O=C(Cc1cccc(Cl)c1)N/N=C/c1cc(F)ccc1OS(=O)(=O)c1ccc(C(F)(F)F)cc1 [Compound 176, 2-((E)-{[(3-chlorophenyl)acetyl]hydrazono}methyl)-4-fluorophenyl 4-(trifluoromethyl)benzenesulfonate]
  IC50: < 5 µM

## COc1cccc(CC(=O)N/N=C/c2ccc(C)cc2OS(=O)(=O)c2ccc(C)cc2)c1 [Compound 177, 2-((E)-{[(3-methoxyphenyl)acetyl]hydrazono}methyl)-5-methylphenyl 4-methylbenzenesulfonate]
  IC50: < 5 µM

## COc1cccc(CC(=O)N/N=C/c2ccc(C)cc2OS(=O)(=O)c2ccc(C(F)(F)F)cc2)c1 [Compound 178, 2-((E)-{[(3-methoxyphenyl)acetyl]hydrazono}methyl)-5-methylphenyl 4-(trifluoromethyl)benzenesulfonate]
  IC50: < 5 µM

## Cc1ccc(/C=N/NC(=O)Cc2cccc(Cl)c2)c(OS(=O)(=O)c2ccc(C(F)(F)F)cc2)c1 [Compound 179, 2-((E)-{[(3-chlorophenyl)acetyl]hydrazono}methyl)-5-methylphenyl 4-(trifluoromethyl)benzenesulfonate]
  IC50: > 50 µM

## COc1cccc(CC(=O)N/N=C/c2cccc(Cl)c2OS(=O)(=O)c2ccc(C)cc2)c1 [Compound 180, 2-chloro-6-((E)-{[(3-methoxyphenyl)acetyl]hydrazono}methyl)-phenyl 4-methylbenzenesulfonate]
  IC50: < 5 µM

## COc1cccc(CC(=O)N/N=C/c2cccnc2OS(=O)(=O)c2ccc(C)cc2)c1 [Compound 181, 3-((E)-{2-[2-(3-methoxyphenyl)acetyl]hydrazono}methyl)-pyridin-2-yl 4-methylbenzenesulfonate]
  IC50: 5 to 50 µM

## COc1cccc(CC(=O)N/N=C/c2ccccc2OS(=O)(=O)c2ccc3nsnc3c2)c1 [Compound 182, 2-((E)-{2-[2-(3-methoxyphenyl)acetyl]hydrazono}methyl)-phenyl 2,1,3-benzothiadiazole-5-sulfonate]
  IC50: < 5 µM

## CCCCCc1ccc(S(=O)(=O)Oc2ccccc2/C=N/NC(=O)Cc2cccc(OC)c2)cc1 [Compound 183, 2-((E)-{2-[2-(3-methoxyphenyl)acetyl]hydrazono}methyl)-phenyl 4-pentylbenzenesulfonate]
  IC50: < 5 µM

## CCCc1ccc(S(=O)(=O)Oc2ccccc2/C=N/NC(=O)Cc2cccc(OC)c2)cc1 [Compound 184, 2-((E)-{2-[2-(3-methoxyphenyl)acetyl]hydrazono}methyl)-phenyl 4-propylbenzenesulfonate]
  IC50: < 5 µM

## COc1cccc(CC(=O)N/N=C/c2ncccc2OS(=O)(=O)c2ccc(C)cc2)c1 [Compound 185, 2-((E)-{2-[2-(3-methoxyphenyl)acetyl]hydrazono}methyl)-pyridin-3-yl 4-methylbenzenesulfonate]
  IC50: < 5 µM

## COc1cccc(CC(=O)N/N=C/c2ccccc2OS(=O)(=O)c2ccc(OC(C)C)cc2)c1 [Compound 186, 2-((E)-{2-[2-(3-methoxyphenyl)acetyl]hydrazono}methyl)-phenyl 4-isopropoxybenzenesulfonate]
  IC50: < 5 µM

## COc1cccc(CC(=O)N/N=C/c2ccccc2OS(=O)(=O)c2cc(Cl)sc2Cl)c1 [Compound 187, 2-((E)-{2-[2-(3-methoxyphenyl)acetyl]hydrazono}methyl)-phenyl 2,5-dichlorothiophene-3-sulfonate]
  IC50: < 5 µM

## COc1cccc(CC(=O)N/N=C/c2ccccc2OS(=O)(=O)c2cnn(-c3ccccc3)c2C)c1 [Compound 188, 2-((E)-{2-[2-(3-methoxyphenyl)acetyl]hydrazono}methyl)-phenyl 5-methyl-1-phenyl-1H-pyrazole-4-sulfonate]
  IC50: < 5 µM

## COc1cccc(CC(=O)N/N=C/c2ccccc2OS(=O)(=O)Cc2cccc(C(F)(F)F)c2)c1 [Compound 189, 2-((E)-{2-[2-(3-methoxyphenyl)acetyl]hydrazono}methyl)-phenyl [3-(trifluoromethyl)phenyl]methanesulfonate]
  IC50: > 50 µM

## COc1cccc(CC(=O)N/N=C/c2ccccc2OS(=O)(=O)c2ccc(Br)s2)c1 [Compound 190, 2-((E)-{2-[2-(3-methoxyphenyl)acetyl]hydrazono}methyl)-phenyl 5-bromothiophene-2-sulfonate]
  IC50: < 5 µM

## COc1cccc(CC(=O)N/N=C/c2ccccc2OS(=O)(=O)c2ccc(Oc3ccccc3)cc2)c1 [Compound 191, 2-((E)-{2-[2-(3-methoxyphenyl)acetyl]hydrazono}methyl)-phenyl 4-phenoxybenzenesulfonate]
  IC50: > 50 µM

## COc1cccc(CC(=O)N/N=C/c2ccccc2OS(=O)(=O)c2ccc(-c3cc(C(F)(F)F)on3)s2)c1 [Compound 192, 2-((E)-{2-[2-(3-methoxyphenyl)acetyl]hydrazono}methyl)-phenyl 5-[5-(trifluoromethyl)isoxazol-3-yl]thiophene-2-sulfonate]
  IC50: < 5 µM

## COc1cccc(CC(=O)N/N=C/c2c(Cl)cccc2OS(=O)(=O)c2ccc(C(F)(F)F)cc2)c1 [Compound 193, 3-chloro-2-((E)-{[(3-methoxyphenyl)acetyl]hydrazono}methyl)-phenyl 4-(trifluoromethyl)benzenesulfonate]
  IC50: < 5 µM

## O=C(Cc1cccc(Cl)c1)N/N=C/c1c(Cl)cccc1OS(=O)(=O)c1ccc(C(F)(F)F)cc1 [Compound 194, 3-chloro-2-((E)-{[(3-chlorophenyl)acetyl]hydrazono}methyl)-phenyl 4-(trifluoromethyl)benzenesulfonate]
  IC50: < 5 µM

## COc1cccc(CC(=O)N/N=C/c2ccccc2OS(=O)(=O)c2ccc(C(C)=O)cc2)c1 [Compound 195, 2-((E)-{2-[2-(3-methoxyphenyl)acetyl]hydrazono}methyl)-phenyl 4-acetylbenzenesulfonate]
  IC50: < 5 µM

## COc1cccc(CC(=O)N/N=C/c2ccccc2OS(=O)(=O)c2ccc(-n3cccn3)cc2)c1 [Compound 196, 2-((E)-{2-[2-(3-methoxyphenyl)acetyl]hydrazono}methyl)-phenyl 4-(1H-pyrazol-1-yl)benzenesulfonate]
  IC50: < 5 µM

## COc1cccc(CC(=O)N/N=C/c2ccccc2OS(=O)(=O)c2ccc(-c3cnco3)cc2)c1 [Compound 197, 2-((E)-{2-[2-(3-methoxyphenyl)acetyl]hydrazono}methyl)-phenyl 4-(1,3-oxazol-5-yl)benzenesulfonate]
  IC50: < 5 µM

## CCC(C)(C)c1ccc(S(=O)(=O)Oc2ccccc2/C=N/NC(=O)Cc2cccc(OC)c2)cc1 [Compound 198, 2-((E)-{2-[2-(3-methoxyphenyl)acetyl]hydrazono}methyl)-phenyl 4-(1,1-dimethylpropyl)benzenesulfonate]
  IC50: < 5 µM

## CCCCOc1ccc(S(=O)(=O)Oc2ccccc2/C=N/NC(=O)Cc2cccc(OC)c2)cc1 [Compound 199, 2-((E)-{2-[2-(3-methoxyphenyl)acetyl]hydrazono}methyl)-phenyl 4-butoxybenzenesulfonate]
  IC50: < 5 µM

## COc1cccc(CC(=O)N/N=C/c2ccccc2OS(=O)(=O)c2ccc(-c3cnco3)s2)c1 [Compound 200, 2-((E)-{2-[2-(3-methoxyphenyl)acetyl]hydrazono}methyl)-phenyl 5-(1,3-oxazol-5-yl)thiophene-2-sulfonate]
  IC50: < 5 µM

## COc1cccc(CC(=O)N/N=C/c2ccccc2OS(=O)(=O)c2ccc(Oc3ccccc3)nc2)c1 [Compound 201, 2-((E)-{2-[2-(3-methoxyphenyl)acetyl]hydrazono}methyl)-phenyl 6-phenoxypyridine-3-sulfonate]
  IC50: < 5 µM

## COc1cccc(CC(=O)N/N=C/c2ccccc2OS(=O)(=O)c2ccc(Oc3ccc(F)cc3)cc2)c1 [Compound 202, 2-((E)-{2-[2-(3-methoxyphenyl)acetyl]hydrazono}methyl)-phenyl 4-(4-fluorophenoxy)benzenesulfonate]
  IC50: > 50 µM

## COc1cccc(CC(=O)N/N=C/c2c(C)cccc2OS(=O)(=O)c2ccc(C(F)(F)F)cc2)c1 [Compound 203, 2-((E)-{[(3-methoxyphenyl)acetyl]hydrazono}methyl)-3-methylphenyl 4-(trifluoromethyl)benzenesulfonate]
  IC50: < 5 µM

## COc1cccc(CC(=O)N/N=C/c2c(C)cccc2OS(=O)(=O)c2ccc(C)cc2)c1 [Compound 204, 2-((E)-{[(3-methoxyphenyl)acetyl]hydrazono}methyl)-3-methylphenyl 4-methylbenzenesulfonate]
  IC50: < 5 µM

## Cc1ccc(S(=O)(=O)Oc2cccc(F)c2/C=N/NC(=O)Cc2cccc(Cl)c2)cc1 [Compound 205, 2-((E)-{[(3-chlorophenyl)acetyl]hydrazono}methyl)-3-fluorophenyl 4-methylbenzenesulfonate]
  IC50: 5 to 50 µM

## O=C(Cc1cccc(Cl)c1)N/N=C/c1c(F)cccc1OS(=O)(=O)c1ccc(C(F)(F)F)cc1 [Compound 206, 2-((E)-{[(3-chlorophenyl)acetyl]hydrazono}methyl)-3-fluorophenyl 4-(trifluoromethyl)benzenesulfonate]
  IC50: < 5 µM

## COc1cccc(CC(=O)N/N=C/c2c(F)cccc2OS(=O)(=O)c2ccc(C(F)(F)F)cc2)c1 [Compound 207, 3-fluoro-2-((E)-{[(3-methoxyphenyl)acetyl]hydrazono}methyl)-phenyl 4-(trifluoromethyl)benzenesulfonate]
  IC50: < 5 µM

## COc1cccc(CC(=O)N/N=C/c2c(F)cccc2OS(=O)(=O)c2ccc(C)cc2)c1 [Compound 208, 3-fluoro-2-((E)-{[(3-methoxyphenyl)acetyl]hydrazono}methyl)-phenyl 4-methylbenzenesulfonate]
  IC50: 5 to 50 µM

## COc1cccc(CC(=O)N/N=C/c2ccc(Cl)cc2OS(=O)(=O)c2ccc(C)cc2)c1 [Compound 209, 5-chloro-2-((E)-{[(3-methoxyphenyl)acetyl]hydrazono}methyl)-phenyl 4-methylbenzenesulfonate]
  IC50: < 5 µM

## COc1cccc(CC(=O)N/N=C/c2ccc(Cl)cc2OS(=O)(=O)c2ccc(C(F)(F)F)cc2)c1 [Compound 210, 5-chloro-2-((E)-{[(3-methoxyphenyl)acetyl]hydrazono}methyl)-phenyl 4-(trifluoromethyl)benzenesulfonate]
  IC50: 5 to 50 µM
